Results from patent US20160000804A1, “INHIBITORS OF NA(V) 1.9 CHANNEL ACTIVITY AND USES THEREOF FOR TREATING PAIN” (UNIVERSITE D'AIX-MARSEILLE, priority 2013, published 2016).
“Also recorded” adds a separate entry of the source.

Columns and labels:
[1] = system: wild type and Nav1.9 KO mice; assay: Von Frey test after intraplantar injection of cyclodextrins (cholesterol depletion); type: in vivo; details: for mechanical allodynia / tactile hyperalgesia (von Frey filament test): intraplantar injection of 20 μl of a 40 mM solution
Description: (§1) Methyl βcyclodextrin or α-cyclodextrin (both from sigma) were diluted in saline buffer prior to injection. Methyl βcyclodextrin/cholesterol complex (40 mg of cholesterol/g of complex) also called soluble cholesterol was purchased (from Sigma). Unless otherwise states, all cyclodextrin or cyclodextrin/cholesterol complexes were injected at a 40 mM concentration of cyclodextrin corresponding to 5.6 mM of cholesterol in the complex. Mechanical pain threshold was assessed using von Frey filaments (BioSeb) calibrated from 0.008 to 4.000 g. The filaments were applied five times each, in order of increasing forces, and pressed perpendicularly to the plantar surface of the hindpaw until they bent. The first filament which evoked at least 3/5 response was assigned as the pain threshold in grams.

mice = assay: Carrageenan model of persistent paw inflammation, von Frey test; type: in vivo
Description: Persistent paw inflammation was induced by intraplantar injection of 20 μl of 2% λ-carrageenan (Sigma) in mice. Control animal received only vehicle saline solution (0.9% NaCl). 1 hr prior to carrageenan injection, animals received intra peritoneal injection of either saline or ibuprofen (75 mg/kg in saline solution). Mechanical pain threshold was assessed using von Frey filaments (BioSeb) calibrated from 0.008 to 4.000 g. The filaments were applied five times each, in order of increasing forces, and pressed perpendicularly to the plantar surface of the hindpaw until they bent. The first filament which evoked at least 3/5 response was assigned as the pain threshold in grams.

Nav1.9 = assay: Whole-cell voltage clamp recording of Nav1.9 activation curve in DRG neurons; type: cell-based; details: for shift of Nav1.9 activation curve: substance alone versus control neuron, MβCD 20 mM, water soluble cholesterol 20 mM, cholesterol oxidase 4 U/ml, 15 min 37° C.; for reversal of the inflammatory cocktail-induced shift of Nav1.9 activation curve: cholesterol supply in presence of inflammatory cocktail
Description: Dissociation of DRG neurons has been previously described (Coste et al., 2004; Coste et al., 2007). In brief, thoraco-lumbar DRG neurons were excised and incubated in enzyme solution containing 2 mg/ml of collagenase IA (Sigma) for 45 min at 37° C. before trituration in Hanks' medium (Life Technologies). Culture medium was Dulbecco's modified Eagle's medium (DMEM, Life Technologies) supplemented with 10% heat-inactivated fetal calf serum, 50 U/ml penicillin-streptomycin, 2 mML-glutamine, 25 mM glucose, 2 ng/ml glial-derived neurotrophic factor (GDNF) (all from Life Technologies), and 25 ng/ml nerve growth factor (NGF, Millipore). Cells were seeded on 35 mm cultures dishes (Nunc) coated with 2 mg/ml laminin (Sigma) and maintained in a humidified atmosphere (5% CO2, 37° C.) for 16-24 h before further cholesterol manipulations or electrophysiological recording.
Patch pipettes had resistances of 3-3.5 MΩ for whole-cell voltage clamp recordings. Intracellular solution used in this study contained: 130 CsCl, 10 HEPES, 8 NaCl, 5 EGTA, 2.4 CaCl2, 1 MgCl2 (pH 7.3, 298 mOsm/l). […] Extracellular solution contained 500 nM tetrodotoxin (TTX) as well as 1 mM amiloride and 50 μM La^3+ in order to block Ca^2+ currents without altering NaN/Nav1.9 properties (Coste et al., 2007). […]. Extracellular media were exchanged using a gravity-fed bath perfusion system at a flow rate of 2-5 ml/min, while bath solution was removed by continuous suction. Recycling was used to reduce the amount of TTX used. Stock solutions of TTX (0.1 mM) and La^3+ (1M) were prepared in water. Stock solution of amiloride hydrochloride (1M) was made in dimethylsulfoxyde (final concentration, 0.1%).
For drugs application, DRG cultures were incubated for 15 min at 37° C. in DMEM containing freshly prepared MβCD (20 mM), water soluble cholesterol (20 mM), or cholesterol oxidase (4 U/ml). The inflammatory cocktail was incubated in extracellular solution for at least 20 min at room temperature (RT).
Data were acquired with an Axopatch 200B amplifier (Axon Instruments), filtered at 2 kHz, and digitally sampled at 20 kHz using PCLAMP 10 software. Currents were leak subtracted using a P/6 protocol. Voltage errors were minimized using 70-85% series resistance compensation. Whole-cell recording were begun 1 min after achieving the whole-cell configuration, to allow Cs^+ to equilibrate and to allow Nav1.9 channels to recover from slow inactivation. Conductance-voltage curves were calculated from the peak current according to the equation G=I/(V−Erev), where V is the test pulse potential and Erev the reversal potential calculated according to the Nernst equation. The activation curve (G-V) was fitted using the Boltzmann function: G/Gmax=1/(1+exp[(V1/2−V)/k]), where G/Gmax is the normalized conductance, V1/2 is the potential of half-maximum channel activation, and k is the steepness factor.

[2] = system: wild type and Nav1.9 KO mice; assay: Von Frey test in non-inflamed animals; type: in vivo; details: intraplantar injection, non-inflamed wild type and Nav1.9 KO mice
Description: as §1

arthritic mice [3] = assay: CFA induced chronic inflammation (monoarthritis), dynamic weight bearing; type: in vivo
Description: Chronic inflammation (monoarthritis model) was induced under 2% isoflurane anesthesia by two subcutaneous injections of 15 μl around the tibio-tarsal joint of mice with complete Freund adjuvant (CFA), containing 5 μg/μl heat-killed Mycobacterium butyricum (Becton, Dickinson and cie). The animals' weight distribution on the four limbs was assessed using the dynamic weight bearing test (BioSeb). This new incapacitance test consists in a continuous measurement of all pressure points applied by a freely moving animal, allowing a quantitative evaluation of the weight imbalance caused by paw mechanical allodynia. Mice were placed in an 11×11×22 cm cage with a 44×44 sensor cells grid on the floor. The pressure applied on sensor cells by the animal's paws is recorded at a 10 Hz frequency over a 5 min period. Pressure and surface detection thresholds were determined automatically for each animal by the Dynamic weight bearing 1.3.2h software (Bioseb). After the manual attribution of each pressure point to the corresponding paw, the mean weight applied on each paw is calculated. Unilateral pain is finally evaluated trough the ipsi/contralateral hindpaws weight ratio, the weight applied on forepaws, and the percentage of time spent raising ipsilateral hindpaw.

arthritic mice [4] = assay: CFA chronic arthritis pain, transdermal gel, mechanical pain; type: in vivo; details: gel application; cholesterol 28 mM or ibuprofen 5%
Description: Chronic inflammation (monoarthritis model) was induced under 2% isoflurane anesthesia by two subcutaneous injections of 15 μl around the tibio-tarsal joint of mice with complete Freund adjuvant (CFA), containing 5 μg/μl heat-killed Mycobacterium butyricum (Becton, Dickinson and cie). Mechanical pain threshold was assessed using von Frey filaments (BioSeb) calibrated from 0.008 to 4.000 g. The filaments were applied five times each, in order of increasing forces, and pressed perpendicularly to the plantar surface of the hindpaw until they bent. The first filament which evoked at least 3/5 response was assigned as the pain threshold in grams.

[5] = periarticular injection, 20 μl of a 5.6 mM solution, versus saline

`OC[C@H]1O[C@@H]2O[C@H]3[C@H](O)[C@@H](O)[C@@H](O[C@H]4[C@H](O)[C@@H](O)[C@@H](O[C@H]5[C@H](O)[C@@H](O)[C@@H](O[C@H]6[C@H](O)[C@@H](O)[C@@H](O[C@H]7[C@H](O)[C@@H](O)[C@@H](O[C@H]1[C@H](O)[C@H]2O)O[C@@H]7CO)O[C@@H]6CO)O[C@@H]5CO)O[C@@H]4CO)O[C@@H]3CO` [α-CD, α-cyclodextrin] was tested, and the “mechanical allodynia / tactile hyperalgesia (von Frey filament test)” value ([1]; Nav1.9 KO mice) was “did not induce mechanical allodynia”, the “mechanical allodynia / tactile hyperalgesia (von Frey filament test)” value ([1]; wild type mice) was “did not induce mechanical allodynia” and the “mechanical allodynia / tactile hyperalgesia (von Frey filament test)” value ([1]; wild type mice, listed as Alphα-cyclodextrin) was “does not induce tactile hyperalgia”.

`CC(C)Cc1ccc(C(C)C(=O)O)cc1` (stereo not drawn) [ibuprofen] was tested, and the “effect on methyl-beta-cyclodextrin-induced allodynia (mechanical threshold)” value ([1]; intraperitoneal 75 mg/kg, wild type and Nav1.9 KO mice) was “does not modify methyl-beta-cyclodextrin-induced tactile hyperalgia; also recorded: does not reverse allodynic phenotype; also recorded: did not change mechanical threshold” and the “lambda-carrageenan-induced tactile hyperalgesia (von Frey)” value (mice; intraperitoneal injection (75 mg/kg, 1 hr prior to carrageenan)) was “reverse lambdα-carrageenan-induced tactile hyperalgesia”.

With cholesterol oxidase the “shift of Nav1.9 activation curve” value (Nav1.9) was “induces the same shift as inflammatory cocktail; also recorded: shift Nav1.9 activation curves to hyperpolarised potential”.

With methyl-beta-cyclodextrin [MBCD] the “mechanical allodynia / tactile hyperalgesia (von Frey filament test)” value ([1]; Nav1.9 KO mice) was “markedly reduced”, the “mechanical allodynia / tactile hyperalgesia (von Frey filament test)” value ([1]; wild type mice) was “induces a strong mechanical allodynia” and the “shift of Nav1.9 activation curve” value (Nav1.9) was “shift Nav1.9 activation curves to hyperpolarised potential”. The “shift of Nav1.9 activation curve” value (Nav1.9; listed as MβCD) was “induces the same shift as inflammatory cocktail”.

For `CC(C)CCC[C@@H](C)[C@H]1CC[C@H]2[C@@H]3CC=C4C[C@@H](O)CC[C@]4(C)[C@H]3CC[C@]12C` [cholesterol], the “carrageenan induced mechanical allodynia, transdermal delivery” value (mice; gel with 5.6 mM cholesterol applied for 1.5 hrs, versus control gel) was “kills carragenin induced pain”, the “lambda-carrageenan-induced tactile hyperalgesia (von Frey)” value (mice; intraplantar injection of soluble cholesterol, 5, 6 mM of cholesterol) was “inhibits inflammatory evoked pain” and the “mechanical threshold in physiological non-inflamed conditions” value [2] was “without changing physiological mechanical threshold”. The “mechanical threshold in physiological non-inflamed conditions” value ([2]; listed as Cholesterol) was “does not modify mechanical sensibility”, the “weight put on tail” value (arthritic mice [3]; periarticular cholesterol injection versus saline injected mice) was “reduces the weight put on tail” and the “posture / behavioural parameters (dynamic weight bearing)” value (arthritic mice [3]; [5]) was “improved all posture parameters examined; also recorded: improve behavioural parameter of arthritic mice”. For the same compound, the “weight borne by inflamed limbs” value (arthritic mice [3]; [5]) was “bear more weight than limbs injected with saline solution”, the “chronic arthritis mechanical pain, transdermal delivery” value (arthritic mice [4]) was “much efficient to treat arthritic inflammatory pain than a 5% ibuprofen gel” and the “reversal of the inflammatory cocktail-induced shift of Nav1.9 activation curve” value (Nav1.9) was “reverses this shift of activation”. The “reversal of the inflammatory cocktail-induced shift of Nav1.9 activation curve” value (Nav1.9; listed as Cholesterol) was “reverses the shift” and the “shift of Nav1.9 activation curve” value (Nav1.9) was “does not modify activation properties of Nav1.9”.
